For one test, the target named is Human ACC2 (Homo sapiens, UniProt O00763). The experiment in a line: In vitro ACC2 inhibition assay (ADP-Glo), human ACC2. Type of test: biochemical. The conditions noted are these: 5 nM ACC2, 20 μM ATP, 20 μM acetyl-CoA. (In general: ADP-Glo turns the ADP formed in a reaction into a luminescent signal.)
For test [1], the system named is C. parapsilosis ATCC 22019. The test can be described thus: Anti-Fungal Activity Assay (broth microtiter MIC), C. parapsilosis. The test is classed as cell-based, Candida parapsilosis. The conditions noted are these: Lodderomyces parapsilosis, ATCC22019, 48 h, 3 replicates; MIC recorded at 48 h; read-out: MIC C. parapsilosis ATCC 22019. In short, it runs like this: (§1)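 MIC taken as visual growth inhibition versus the growth control, mostly at 48 h (soraphen also at 24 h). Following CLSI M27-A3, colonies grown overnight at 35° C on Sabouraud dextrose agar were suspended in RPMI 1640+MOPS; test agents came from 1 mg/mL DMSO stocks.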

In another test the test system is C. krusei ATCC 6258. The test can be described thus: Anti-Fungal Activity Assay (broth microtiter MIC), C. krusei. Type of test: cell-based, Candida krusei. To be noted: Pichia kudriavzevii, ATCC6258, 48 h, 3 replicates; MIC recorded at 48 h; read-out: MIC C. krusei ATCC 6258. In outline: as §1
A further test concerns C. albicans ATCC 90028. The experiment in a line: Anti-Fungal Activity Assay (broth microtiter MIC), C. albicans. The test is classed as cell-based, Candida albicans. To be noted: Candida albicans, ATCC90028, 48 h, 3 replicates; MIC recorded at 48 h; read-out: MIC C. albicans ATCC 90028. In outline: as §1
In another test the target is Fungal ACC2 (UniProt Q00955). To be noted: read-out: Fungal ACC2 (IC50, in vitro ACC2 inhibition).

The structures appear in SMILES notation. Values after ≈ are worked out from the molar mass of the structure shown.

For orientation: IC50 means the midpoint of a concentration-inhibition curve. By MIC is commonly meant the lowest concentration that inhibits growth of the organism.

Human ACC2, sequence (O00763 whole entry): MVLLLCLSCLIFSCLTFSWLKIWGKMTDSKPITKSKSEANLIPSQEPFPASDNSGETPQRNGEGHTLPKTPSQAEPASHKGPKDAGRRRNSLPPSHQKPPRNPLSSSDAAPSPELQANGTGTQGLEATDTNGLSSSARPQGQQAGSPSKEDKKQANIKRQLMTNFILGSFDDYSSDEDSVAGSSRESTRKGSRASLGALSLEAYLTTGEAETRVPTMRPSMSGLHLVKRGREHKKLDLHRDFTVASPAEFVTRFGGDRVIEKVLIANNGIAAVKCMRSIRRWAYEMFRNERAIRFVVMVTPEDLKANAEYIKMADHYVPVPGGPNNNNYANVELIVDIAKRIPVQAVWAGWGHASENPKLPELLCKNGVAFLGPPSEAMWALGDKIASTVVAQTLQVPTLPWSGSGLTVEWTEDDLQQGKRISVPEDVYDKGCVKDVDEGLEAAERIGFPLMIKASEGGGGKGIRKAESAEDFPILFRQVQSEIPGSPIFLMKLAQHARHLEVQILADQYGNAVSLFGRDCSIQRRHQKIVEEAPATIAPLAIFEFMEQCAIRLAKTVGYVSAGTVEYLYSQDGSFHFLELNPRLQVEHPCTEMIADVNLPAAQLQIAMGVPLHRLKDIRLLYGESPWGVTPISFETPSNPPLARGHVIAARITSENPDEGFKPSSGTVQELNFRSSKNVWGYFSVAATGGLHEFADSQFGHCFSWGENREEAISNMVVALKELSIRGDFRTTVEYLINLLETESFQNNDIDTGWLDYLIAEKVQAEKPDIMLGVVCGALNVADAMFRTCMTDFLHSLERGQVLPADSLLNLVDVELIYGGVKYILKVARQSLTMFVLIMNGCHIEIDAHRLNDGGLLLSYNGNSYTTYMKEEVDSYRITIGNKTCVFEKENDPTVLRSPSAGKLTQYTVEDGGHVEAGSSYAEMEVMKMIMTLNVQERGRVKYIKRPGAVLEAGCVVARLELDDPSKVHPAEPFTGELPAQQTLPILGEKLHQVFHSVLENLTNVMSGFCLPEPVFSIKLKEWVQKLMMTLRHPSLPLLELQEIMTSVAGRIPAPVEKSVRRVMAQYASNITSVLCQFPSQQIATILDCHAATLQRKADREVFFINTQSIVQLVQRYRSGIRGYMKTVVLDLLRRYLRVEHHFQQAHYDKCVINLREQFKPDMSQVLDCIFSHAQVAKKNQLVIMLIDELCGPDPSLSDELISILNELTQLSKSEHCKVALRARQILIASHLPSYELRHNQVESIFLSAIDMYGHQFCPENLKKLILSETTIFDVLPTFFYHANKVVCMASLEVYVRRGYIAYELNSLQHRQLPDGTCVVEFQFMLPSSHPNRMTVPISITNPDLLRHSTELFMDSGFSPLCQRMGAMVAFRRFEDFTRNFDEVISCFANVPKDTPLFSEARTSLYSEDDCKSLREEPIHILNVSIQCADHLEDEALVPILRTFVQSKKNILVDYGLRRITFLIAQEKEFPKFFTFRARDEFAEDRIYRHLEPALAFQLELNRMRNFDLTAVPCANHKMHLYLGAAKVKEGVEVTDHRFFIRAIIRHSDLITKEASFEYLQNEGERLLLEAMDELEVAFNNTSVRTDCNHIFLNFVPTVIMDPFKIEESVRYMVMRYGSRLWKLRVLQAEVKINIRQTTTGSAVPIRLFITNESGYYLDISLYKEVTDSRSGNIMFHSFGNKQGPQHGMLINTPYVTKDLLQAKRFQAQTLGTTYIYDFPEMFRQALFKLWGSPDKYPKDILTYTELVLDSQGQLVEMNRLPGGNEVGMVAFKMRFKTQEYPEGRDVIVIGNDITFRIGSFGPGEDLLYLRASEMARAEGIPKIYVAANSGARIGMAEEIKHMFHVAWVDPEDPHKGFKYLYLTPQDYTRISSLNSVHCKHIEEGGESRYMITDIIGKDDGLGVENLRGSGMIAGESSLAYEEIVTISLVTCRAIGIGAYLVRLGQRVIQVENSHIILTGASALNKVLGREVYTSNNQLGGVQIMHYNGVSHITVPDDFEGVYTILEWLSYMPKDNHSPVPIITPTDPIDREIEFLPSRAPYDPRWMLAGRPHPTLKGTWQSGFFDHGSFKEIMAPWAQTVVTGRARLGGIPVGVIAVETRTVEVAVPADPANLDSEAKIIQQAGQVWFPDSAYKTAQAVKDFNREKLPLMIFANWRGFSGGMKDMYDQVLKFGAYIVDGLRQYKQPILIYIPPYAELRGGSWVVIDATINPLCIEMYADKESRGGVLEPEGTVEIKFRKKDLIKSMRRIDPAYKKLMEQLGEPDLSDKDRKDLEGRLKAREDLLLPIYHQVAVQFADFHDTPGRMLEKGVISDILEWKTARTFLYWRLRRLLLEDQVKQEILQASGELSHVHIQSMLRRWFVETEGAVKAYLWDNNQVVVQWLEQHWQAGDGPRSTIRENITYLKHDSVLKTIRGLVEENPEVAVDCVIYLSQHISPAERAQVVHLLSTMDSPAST
Fungal ACC2, sequence (Q00955 whole entry): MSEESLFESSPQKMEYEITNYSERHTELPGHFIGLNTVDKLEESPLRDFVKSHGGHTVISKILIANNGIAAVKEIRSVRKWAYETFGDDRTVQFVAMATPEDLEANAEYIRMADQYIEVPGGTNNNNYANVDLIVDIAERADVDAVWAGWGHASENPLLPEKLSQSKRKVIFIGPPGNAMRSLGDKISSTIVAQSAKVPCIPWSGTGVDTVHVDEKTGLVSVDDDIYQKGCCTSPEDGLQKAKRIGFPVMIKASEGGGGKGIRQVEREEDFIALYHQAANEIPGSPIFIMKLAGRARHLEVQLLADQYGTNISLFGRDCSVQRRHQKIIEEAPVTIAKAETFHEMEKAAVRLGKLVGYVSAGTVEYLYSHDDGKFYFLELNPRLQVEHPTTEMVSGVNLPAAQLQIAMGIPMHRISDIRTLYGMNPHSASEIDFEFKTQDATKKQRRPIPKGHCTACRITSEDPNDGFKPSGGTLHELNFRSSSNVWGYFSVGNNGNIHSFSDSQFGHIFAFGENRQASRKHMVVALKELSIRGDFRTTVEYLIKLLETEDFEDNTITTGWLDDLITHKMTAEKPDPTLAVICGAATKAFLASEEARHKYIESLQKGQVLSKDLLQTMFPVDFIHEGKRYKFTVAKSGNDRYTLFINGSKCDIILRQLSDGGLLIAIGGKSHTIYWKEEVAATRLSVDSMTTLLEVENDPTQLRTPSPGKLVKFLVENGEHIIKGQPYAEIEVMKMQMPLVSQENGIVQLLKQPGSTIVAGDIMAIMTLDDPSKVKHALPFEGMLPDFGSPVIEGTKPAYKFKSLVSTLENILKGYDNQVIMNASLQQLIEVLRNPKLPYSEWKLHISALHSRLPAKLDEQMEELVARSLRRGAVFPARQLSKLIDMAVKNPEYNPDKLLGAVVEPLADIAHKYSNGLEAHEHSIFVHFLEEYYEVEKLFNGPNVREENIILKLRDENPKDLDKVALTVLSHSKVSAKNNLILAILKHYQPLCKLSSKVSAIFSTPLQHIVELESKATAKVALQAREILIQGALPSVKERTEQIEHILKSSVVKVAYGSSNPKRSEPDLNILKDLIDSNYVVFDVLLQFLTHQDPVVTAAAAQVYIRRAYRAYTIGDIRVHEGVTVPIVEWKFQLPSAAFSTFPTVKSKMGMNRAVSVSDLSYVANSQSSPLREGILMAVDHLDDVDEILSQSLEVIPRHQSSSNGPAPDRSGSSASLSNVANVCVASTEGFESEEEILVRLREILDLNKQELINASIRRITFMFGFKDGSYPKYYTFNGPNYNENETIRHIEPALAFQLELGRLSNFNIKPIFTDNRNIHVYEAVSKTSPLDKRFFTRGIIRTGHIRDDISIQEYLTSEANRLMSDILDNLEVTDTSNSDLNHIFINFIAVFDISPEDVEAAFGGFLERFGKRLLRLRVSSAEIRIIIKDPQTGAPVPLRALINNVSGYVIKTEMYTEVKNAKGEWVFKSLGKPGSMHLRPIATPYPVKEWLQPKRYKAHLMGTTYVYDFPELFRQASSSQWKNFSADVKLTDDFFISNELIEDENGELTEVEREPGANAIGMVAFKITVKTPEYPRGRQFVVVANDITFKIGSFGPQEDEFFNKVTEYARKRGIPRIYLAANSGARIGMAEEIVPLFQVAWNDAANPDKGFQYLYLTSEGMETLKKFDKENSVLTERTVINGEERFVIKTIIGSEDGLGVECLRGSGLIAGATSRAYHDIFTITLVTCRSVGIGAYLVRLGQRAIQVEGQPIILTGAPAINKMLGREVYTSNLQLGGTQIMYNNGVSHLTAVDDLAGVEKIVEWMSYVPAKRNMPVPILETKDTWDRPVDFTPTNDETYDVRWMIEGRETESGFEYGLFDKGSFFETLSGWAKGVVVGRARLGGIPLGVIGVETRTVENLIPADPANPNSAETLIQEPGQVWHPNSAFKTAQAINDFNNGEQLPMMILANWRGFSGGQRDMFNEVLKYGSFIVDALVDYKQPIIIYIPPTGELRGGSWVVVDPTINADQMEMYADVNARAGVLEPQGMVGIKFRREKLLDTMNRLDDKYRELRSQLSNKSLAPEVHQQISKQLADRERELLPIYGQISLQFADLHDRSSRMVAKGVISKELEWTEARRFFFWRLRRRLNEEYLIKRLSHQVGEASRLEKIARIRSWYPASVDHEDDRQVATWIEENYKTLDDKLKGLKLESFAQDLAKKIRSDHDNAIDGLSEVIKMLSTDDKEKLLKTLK

Regarding `COc1ccccc1[C@H](Cn1c(=O)n(C2CCNC2=O)c(=O)c2c(C)c(-c3ncco3)sc21)OCCO` (stereo partly drawn) [Compound I-53, 1-((R)-2-(2-hydroxyethoxy)-2-(2-methoxyphenyl)ethyl)-5-methyl-6-(oxazol-2-yl)-3-(2-oxopyrrolidin-3-yl)thieno[2,3-d]pyrimidine-2,4(1H,3H)-dione], the IC50 at Human ACC2 and on Fungal ACC2 was 10 to 100 nM each time. Also, the MIC (in test [1]; with C. krusei ATCC 6258; in the test on C. albicans ATCC 90028) was 2.1 to 4 µg/mL (≈ 3.99 to 7.6 µM) throughout.

Consider `COc1ccccc1[C@@H](O)Cn1c(=O)n([C@H]2CCN(C)C2=O)c(=O)c2c(C)c(-n3nccn3)sc21` [Compound I-165, 1-((R)-2-hydroxy-2-(2-methoxyphenyl)ethyl)-5-methyl-3-((S)-1-methyl-2-oxopyrrolidin-3-yl)-6-(2H-1,2,3-triazol-2-yl)thieno[2,3-d]pyrimidine-2,4(1H,3H)-dione], for which the IC50 at Human ACC2 was 10 to 100 nM; at Fungal ACC2 it was 2 to 10 nM. The MIC (in test [1]; with C. krusei ATCC 6258; with C. albicans ATCC 90028) was 2.1 to 4 µg/mL (≈ 4.23 to 8.06 µM) each time.

For the compound `COc1ccc(F)cc1[C@H](Cn1c(=O)n([C@]2(C)CCCNC2=O)c(=O)c2c(C)c(-n3nccn3)sc21)OCCO` [Compound I-126, 1-((R)-2-(5-fluoro-2-methoxyphenyl)-2-(2-hydroxyethoxy)ethyl)-5-methyl-3-((R)-3-methyl-2-oxopiperidin-3-yl)-6-(2H, 1,2,3-triazol-2-yl)thieno[2,3-d]pyrimidine-2,4(1H,3H)-dione], the figures for the IC50 against Human ACC2 and at Fungal ACC2 were 2 to 10 nM and 0.7 to 2 nM, respectively. The MIC in test [1] is 2.1 to 4 µg/mL (≈ 3.67 to 6.99 µM); with C. krusei ATCC 6258, 0.25 to 1 µg/mL (≈ 0.437 to 1.75 µM); with C. albicans ATCC 90028, 2.1 to 4 µg/mL (≈ 3.67 to 6.99 µM).

Consider `COc1ccc(F)cc1[C@H](Cn1c(=O)n([C@H]2CCN(C)C2=O)c(=O)c2c(C)c(-n3nccn3)sc21)OC` [Compound I-168, 1-((R)-2-(5-fluoro-2-methoxyphenyl)-2-methoxyethyl)-5-methyl-3-((S)-1-methyl-2-oxopyrrolidin-3-yl)-6-(2H-1,2,3-triazol-2-yl)thieno[2,3-d]pyrimidine-2,4(1H,3H)-dione], for which the values for the IC50 at Human ACC2 and at Fungal ACC2 were 10 to 100 nM and 2 to 10 nM, respectively. The MIC (in test [1]; with C. krusei ATCC 6258; in the test on C. albicans ATCC 90028) was 2.1 to 4 µg/mL (≈ 3.97 to 7.57 µM) each time.

`COc1ccc(F)cc1[C@H](Cn1c(=O)n([C@H]2CCNC2=O)c(=O)c2c(C)c(-c3ncco3)sc21)OCCO` [Compound I-68, 1-((R)-2-(5-fluoro-2-methoxyphenyl)-2-(2-hydroxy-ethoxy)ethyl)-5-methyl-6-(oxazol-2-yl)-3-((S)-2-oxopyrrolidin-3-yl)thieno[2,3-d]pyrimidine-2,4(1H,3H)-dione]: the IC50 was 10 to 100 nM against Human ACC2 and 2 to 10 nM at Fungal ACC2. Further, the MIC (in test [1]; with C. krusei ATCC 6258; in the test with C. albicans ATCC 90028) was 2.1 to 4 µg/mL (≈ 3.86 to 7.35 µM) in each case.

As for `COCCO[C@@H](Cn1c(=O)n([C@H]2CCN(C(=O)C(C)C)C2)c(=O)c2c(C)c(-n3nccn3)sc21)c1cc(F)ccc1OC` [Compound I-96, 1-((R)-2-(5-fluoro-2-methoxyphenyl)-2-(2-methoxy-ethoxy)ethyl)-3-((S)-1-isobutyrylpyrrolidin-3-yl)-5-methyl-6-(2H-1,2,3-triazol-2-yl)thieno[2,3-d]pyrimidine-2,4(1H,3H)-dione], the IC50 against Human ACC2 fell in the range of 10 to 100 nM; on Fungal ACC2, 2 to 10 nM. Further, the MIC (in test [1]; in the test on C. krusei ATCC 6258; in the test with C. albicans ATCC 90028) was 2.1 to 4 µg/mL (≈ 3.42 to 6.51 µM) throughout.

For `COCCO[C@@H](Cn1c(=O)n(CCN2CCCC2=O)c(=O)c2c(C)c(-n3nccn3)sc21)c1cc(F)ccc1OC` [Compound I-99, (R)-1-(2-(5-fluoro-2-methoxyphenyl)-2-(2-methoxy-ethoxy)ethyl)-5-methyl-3-(2-(2-oxopyrrolidin-1-yl)ethyl)-6-(2H-1,2,3-triazol-2-yl)thieno[2,3-d]pyrimidine-2,4(1H,3H)-dione], the IC50 was 10 to 100 nM against Human ACC2 and 0.7 to 2 nM on Fungal ACC2. Further, the MIC (in test [1]; with C. krusei ATCC 6258; with C. albicans ATCC 90028) was 2.1 to 4 µg/mL (≈ 3.58 to 6.82 µM) throughout.

Take `COCCO[C@@H](Cn1c(=O)n([C@]2(C)CCCN(C)C2=O)c(=O)c2c(C)c(-n3nccn3)sc21)c1cc(F)ccc1OC` [Compound I-128, 3-((R)-1,3-dimethyl-2-oxopiperidin-3-yl)-1-((R)-2-(5-fluoro-2-methoxyphenyl)-2-(2-methoxyethoxy)ethyl)-5-methyl-6-(2H-1,2,3-triazol-2-yl)thieno[2,3-d]pyrimidine-2,4(1H,3H)-dione]: the IC50 is 10 to 100 nM on Human ACC2 and 2 to 10 nM at Fungal ACC2. Moreover, the MIC (in test [1]; in the test on C. krusei ATCC 6258; in the test on C. albicans ATCC 90028) was 2.1 to 4 µg/mL (≈ 3.5 to 6.66 µM) throughout.

As for `COc1ccc(F)cc1[C@H](Cn1c(=O)n([C@]2(C)CNC(=O)C2)c(=O)c2c(C)c(-n3nccn3)sc21)OCCO` [Compound I-119, 1-((R)-2-(5-fluoro-2-methoxyphenyl)-2-(2-hydroxyethoxy)ethyl)-5-methyl-3-((S)-3-methyl-5-oxopyrrolidin-3-yl)-6-(2H-1,2,3-triazol-2-yl)thieno[2,3-d]pyrimidine-2,4(1H,3H)-dione], the IC50 against Human ACC2 was 10 to 100 nM; on Fungal ACC2, 2 to 10 nM. Also, the MIC (in test [1]; in the test with C. krusei ATCC 6258; in the test on C. albicans ATCC 90028) was 2.1 to 4 µg/mL (≈ 3.76 to 7.16 µM) throughout.

Consider `COc1ccc(F)cc1[C@H](Cn1c(=O)n([C@]2(C)CCCN(C)C2=O)c(=O)c2c(C)c(-n3nccn3)sc21)OCCO` [Compound I-129, 3-((R)-1,3-dimethyl-2-oxopiperidin-3-yl)-1-((R)-2-(5-fluoro-2-methoxyphenyl)-2-(2-hydroxyethoxy)ethyl)-5-methyl-6-(2H-1,2,3-triazol-2-yl)thieno[2,3-d]pyrimidine-2,4(1H,3H)-dione], for which the figures for the IC50 against Human ACC2 and at Fungal ACC2 were 10 to 100 nM and 0.7 to 2 nM, respectively. In addition, the MIC (in test [1]; with C. krusei ATCC 6258; with C. albicans ATCC 90028) was 2.1 to 4 µg/mL (≈ 3.58 to 6.82 µM) each time.

In the case of `COc1ccc(F)cc1[C@H](Cn1c(=O)n(C2CCN(C)C2=O)c(=O)c2c(C)c(-n3nccn3)sc21)OC1CCOCC1` (stereo partly drawn) [Compound I-10, 1-((R)-2-(5-fluoro-2-methoxyphenyl)-2-((tetrahydro-2H-pyran-4-yl)oxy)ethyl)-5-methyl-3-(1-methyl-2-oxopyrrolidin-3-yl)-6-(2H-1,2,3-triazol-2-yl)thieno[2,3-d]pyrimidine-2,4(1H,3H)-dione], the IC50 was 2 to 10 nM against Human ACC2 and 0.7 to 2 nM at Fungal ACC2. Moreover, the MIC (in test [1]; with C. krusei ATCC 6258) was 0.25 to 1 µg/mL (≈ 0.418 to 1.67 µM) in each case.

For the compound `COc1ccc(F)cc1[C@H](Cn1c(=O)n([C@H]2CCN(C)C2=O)c(=O)c2c(C)c(-c3ncco3)sc21)O[C@H]1CC[C@@H](O)CC1` [Compound I-194, 1-((R)-2-(5-fluoro-2-methoxyphenyl)-2-(((1 s, 4S)-4-hydroxycyclohexyl)oxy)ethyl)-5-methyl-3-((S)-1-methyl-2-oxopyrrolidin-3-yl)-6-(oxazol-2-yl)thieno[2,3-d]pyrimidine-2,4(1H,3H)-dione], the results for the IC50 against Human ACC2 and at Fungal ACC2 were 2 to 10 nM and 0.7 to 2 nM, respectively.

Regarding `COCCO[C@@H](Cn1c(=O)n([C@]2(C)CCN(C)C2=O)c(=O)c2c(C)c(-n3nccn3)sc21)c1cc(F)ccc1OC` [Compound I-146, 3-((R)-1,3-dimethyl-2-oxopyrrolidin-3-yl)-1-((R)-2-(5-fluoro-2-methoxyphenyl)-2-(2-methoxyethoxy)ethyl)-5-methyl-6-(2H-1,2,3-triazol-2-yl)thieno[2,3-d]pyrimidine-2,4(1H,3H)-dione], the IC50 on Human ACC2 and on Fungal ACC2 was more than 1000 nM each time.

In the case of `COCCO[C@@H](Cn1c(=O)n([C@]2(C)CCNC2=O)c(=O)c2c(C)c(-n3nccn3)sc21)c1cc(F)ccc1OC` [Compound I-140, 1-((R)-2-(5-fluoro-2-methoxyphenyl)-2-(2-methoxy-ethoxy)ethyl)-5-methyl-3-((R)-3-methyl-2-oxopyrrolidin-3-yl)-6-(2H-1,2,3-triazol-2-yl)thieno[2,3-d]pyrimidine-2,4(1H,3H)-dione], the IC50 at Human ACC2 and at Fungal ACC2 was more than 1000 nM each time.

Consider `COc1ccc(F)cc1[C@H](Cn1c(=O)n([C@H]2CCNC2=O)c(=O)c2c(C)c(-c3ncco3)sc21)O[C@H]1CC[C@@H](O)CC1` [Compound I-192, 1-((R)-2-(5-fluoro-2-methoxyphenyl)-2-(((1 s, 4S)4-hydroxycyclohexyl)oxy)ethyl)-5-methyl-6-(oxazol-2-yl)-3-((S)-2-oxopyrrolidin-3-yl)thieno[2,3-d]pyrimidine-2,4(1H,3H)-dione], for which the figures for the IC50 against Human ACC2 and on Fungal ACC2 were 2 to 10 nM and 0.7 to 2 nM, respectively.

For `COCCO[C@@H](Cn1c(=O)n([C@@]2(C)CCN(C)C2=O)c(=O)c2c(C)c(-n3nccn3)sc21)c1cc(F)ccc1OC` [Compound I-148, 3-((S)-1,3-dimethyl-2-oxopyrrolidin-3-yl)-1-((R)-2-(5-fluoro-2-methoxyphenyl)-2-(2-methoxyethoxy)ethyl)-5-methyl-6-(2H-1,2,3-triazol-2-yl)thieno[2,3-d]pyrimidine-24(1H,3H)-dione], the IC50 on Human ACC2 and on Fungal ACC2 was more than 1000 nM throughout.

The values are drawn from patent US20190330224A1, “ACC INHIBITORS AND USES THEREOF” (Gilead Apollo, LLC, priority 2015, published 2019).
